Measurements from ChEMBL document CHEMBL3507680, “University of Dundee, Gates Library screen for HepG2 cell viability”.

Experiment: Human HepG2 cell viability assay in 384 well format
Format: toxicity, cell-based
Parameters: dose 125 nL, time 70.5 hour; cytotoxicity at 70.5 h: concentration not given beside the values
Conditions: HepG2 cells, read-out: Inhibition

## O=C(Nc1ccc2c(c1)C(=O)NC2=O)c1ccc(Cl)s1
  cytotoxicity at 70.5 h: -10.9%

## CC(C)(C)n1ncc2c(=O)n(CC(=O)NCc3ccco3)cnc21
  cytotoxicity at 70.5 h: -11.6%

## CC(C)(C)n1ncc2c(=O)n(CC(=O)NCCc3ccccc3)cnc21
  cytotoxicity at 70.5 h: -13.5%

## Cc1c(C)n2c(SCC(=O)N3CCCCCC3)nnc2[nH]c1=O
  cytotoxicity at 70.5 h: -7.58%

## O=C(Nc1ccc(Br)cc1F)c1ccc(N2CCCCC2)nn1
  cytotoxicity at 70.5 h: -3.25%

## Cc1ccc(NC(=O)c2ccc(N3CCCCC3)nn2)c(Cl)c1
  cytotoxicity at 70.5 h: 3.33%

## O=C(Nc1cc(C(F)(F)F)ccc1Cl)c1ccc(N2CCOCC2)nn1
  cytotoxicity at 70.5 h: -0.689%

## CSc1ccccc1NC(=O)c1ccc(N2CCOCC2)nn1
  cytotoxicity at 70.5 h: -3.96%

## CN1C(=O)c2cccc(NC(=O)c3ccc4c(c3)OCCO4)c2C1=O
  cytotoxicity at 70.5 h: 21.1%

## COCCn1/c(=N\C(=O)CN(C)S(C)(=O)=O)sc2cccc(F)c21
  cytotoxicity at 70.5 h: 20.2%

## COCCn1/c(=N\C(=O)CN(C)S(C)(=O)=O)sc2cc(Cl)ccc21
  cytotoxicity at 70.5 h: 17%

## COCCn1/c(=N\C(=O)CN(C)S(C)(=O)=O)sc2cc(OC)ccc21
  cytotoxicity at 70.5 h: 17.2%

## CCSc1nc(N)c(NC(=O)c2ccc(OC)c(OC)c2)c(=O)[nH]1
  cytotoxicity at 70.5 h: 11.2%

## CCCSc1nc(N)c(NC(=O)c2ccc(OC)c(OC)c2)c(=O)[nH]1
  cytotoxicity at 70.5 h: 12%

## CC(C)CSc1ccc(-n2cccn2)nn1
  cytotoxicity at 70.5 h: 27.6%

## COc1ccc(CCNC(=O)NC2CC(=O)N(c3ccccc3)C2)cc1 (stereo unspecified)
  cytotoxicity at 70.5 h: 49%

## OC1CN(c2nc3c(C(F)(F)F)cccc3s2)C1
  cytotoxicity at 70.5 h: 12.2%

## O=c1n(Cc2ccc(C(F)(F)F)cc2)nc2ncccn12
  cytotoxicity at 70.5 h: 24.3%

## CC(=O)CSc1nc2c(cnn2CCO)c(=O)[nH]1
  cytotoxicity at 70.5 h: 21.3%

## Cc1cc(NC(=O)C(C)C)n(-c2nc(C)c(C)c(=O)[nH]2)n1
  cytotoxicity at 70.5 h: 56.9%

## CNC(=O)Cn1c(CO)cnc1SCc1ccccc1Cl
  cytotoxicity at 70.5 h: 16.9%

## NC(=O)Cn1c(CO)cnc1SCc1ccccc1Cl
  cytotoxicity at 70.5 h: 18.9%

## CN1C(=O)C(C)(C)COc2ccc(NS(=O)(=O)Cc3ccccc3)cc21
  cytotoxicity at 70.5 h: 5.22%

## COCC(=O)Nc1ccc2c(c1)CN(C(=O)c1ccco1)CC2
  cytotoxicity at 70.5 h: 23.8%

## Cc1cc(C(=O)N2CCN(c3nc4c(F)cccc4s3)CC2)no1
  cytotoxicity at 70.5 h: -7.99%

## Cc1cc(C(=O)N2CCN(c3nc4c(C(C)C)cccc4s3)CC2)no1
  cytotoxicity at 70.5 h: 3.44%

## Cc1cnc2c(c1NCc1ccc3c(c1)OCO3)c(=O)n(C)c(=O)n2C
  cytotoxicity at 70.5 h: 46.5%

## Cc1cnc2c(c1NCc1ccccn1)c(=O)n(C)c(=O)n2C
  cytotoxicity at 70.5 h: -11.2%

## CCc1cnc2c(c1NCc1ccc(OC)cc1)c(=O)n(C)c(=O)n2C
  cytotoxicity at 70.5 h: 3.22%

## CCCNC(=O)Cn1nc(C)c2cnn(C(C)(C)C)c2c1=O
  cytotoxicity at 70.5 h: 19.1%

## O=C(CC1CSc2nccc(=O)n21)NCc1cc(-c2ccco2)on1 (stereo unspecified)
  cytotoxicity at 70.5 h: -11.9%

## Cc1cc(=O)n2c(n1)SCC2CC(=O)NCc1cc(-c2ccco2)on1 (stereo unspecified)
  cytotoxicity at 70.5 h: -9.17%

## CCCc1cc(=O)[nH]c2nnc(SCC(=O)NCCc3ccccc3)n12
  cytotoxicity at 70.5 h: -5.81%

## Cc1ccccc1-n1ncc2c(=O)n(CCN3CCCC3)cnc21
  cytotoxicity at 70.5 h: 26.8%

## CN1C(=O)c2cccc(NC(=O)c3cccc(S(C)(=O)=O)c3)c2C1=O
  cytotoxicity at 70.5 h: -4.72%

## CCCNC(=O)Cn1c(-n2nc(C)cc2C)nc(CCC)cc1=O
  cytotoxicity at 70.5 h: 3.03%

## O=C(CSC1=NS(=O)(=O)c2cc(Cl)ccc2N1)c1ccccc1
  cytotoxicity at 70.5 h: 23.9%

## CCCc1cc(=O)[nH]c(SCc2ccccn2)n1
  cytotoxicity at 70.5 h: -2.16%

## CCCNC(=O)Cn1cc(OC)c(=O)cc1CSc1nc(C)cc(C)n1
  cytotoxicity at 70.5 h: -13.1%

## O=c1nc(SCc2ccncc2)c2c(n1CCO)CCC2
  cytotoxicity at 70.5 h: -0.878%

## O=c1nc(SCc2ccc(Cl)cc2)c2c(n1CCO)CCC2
  cytotoxicity at 70.5 h: 20.9%

## COc1ccc(NC(=O)Cn2nc(C)c(C(C)=O)c2C)cc1
  cytotoxicity at 70.5 h: 2.67%

## Cc1ccc(S(=O)(=O)N(C)c2ccsc2C(=O)NCC(C)C)cc1
  cytotoxicity at 70.5 h: 45.4%

## CCN(c1ccsc1C(=O)N1CCC(C)CC1)S(=O)(=O)c1ccccc1
  cytotoxicity at 70.5 h: -11.9%

## CCN(c1ccsc1C(=O)N1CCSCC1)S(=O)(=O)c1ccccc1
  cytotoxicity at 70.5 h: 6.6%

## CCN(c1ccsc1C(=O)N1CCSCC1)S(=O)(=O)c1ccc(Cl)cc1
  cytotoxicity at 70.5 h: -3.47%

## Cc1ccc(NC(=O)Cn2ncc(SCC(N)=O)c(Cl)c2=O)cc1
  cytotoxicity at 70.5 h: -7.72%

## Cc1cc(NC(=O)Cn2ncc(SCC(N)=O)c(Cl)c2=O)ccc1Br
  cytotoxicity at 70.5 h: -5.33%

## O=C(C1=NN(Cc2ccccc2)c2ccccc2S1(=O)=O)N1CCCC1
  cytotoxicity at 70.5 h: -0.281%

## CC(C)Cn1nc2ccc(S(=O)(=O)N3CCC(C)CC3)cn2c1=O
  cytotoxicity at 70.5 h: -10.3%

## CC1CCN(C(=O)c2cn(-c3cc(N4CCSCC4)ncn3)cn2)CC1
  cytotoxicity at 70.5 h: 3.74%

## O=C(c1cn(-c2cc(N3CCSCC3)ncn2)cn1)N1CCOCC1
  cytotoxicity at 70.5 h: 23.9%

## CNC(=O)C1CCCN(c2nc3c(-c4ccccc4)csc3c(=O)[nH]2)C1 (stereo unspecified)
  cytotoxicity at 70.5 h: 4.92%

## Cc1ccc(-c2csc3c(=O)[nH]c(N4CCCC(C(=O)O)C4)nc23)cc1 (stereo unspecified)
  cytotoxicity at 70.5 h: 3.06%

## COCCCNC(=O)Cc1cc(-c2ccccc2)on1
  cytotoxicity at 70.5 h: -0.233%

## CCOc1nn(CC)cc1-c1nnc(SCc2cccnc2)n1C
  cytotoxicity at 70.5 h: -5.3%

## COCCN1C(=O)CC[C@@H]2[C@H]1CCN2C(=O)N(C)C
  cytotoxicity at 70.5 h: -8.72%

## O=C(C1CCC1)N1CCO[C@@H]2CNC[C@@H]21
  cytotoxicity at 70.5 h: 12.9%

## CC(C)N(C)Cc1ncn2c1CN(CC(=O)N(C)C)CCC2
  cytotoxicity at 70.5 h: 8.76%

## CCOC(=O)C1CN(S(=O)(=O)C2CC2)Cc2ncn(CC)c21 (stereo unspecified)
  cytotoxicity at 70.5 h: 11%

## COCCN(CCOC)C(=O)c1ccn(-c2ccc3ccccn23)n1
  cytotoxicity at 70.5 h: 11.4%

## CCN1C(=O)CC(c2cnn(C)c2)C12CCN(C(=O)c1ccc[nH]1)CC2 (stereo unspecified)
  cytotoxicity at 70.5 h: -1.7%

## CCOC(=O)C1CN(C(=O)COC)Cc2ncn(CC)c21 (stereo unspecified)
  cytotoxicity at 70.5 h: -5.03%

## CN1CC2(CCN(Cc3cccnc3)CC2)c2cc(F)ccc21
  cytotoxicity at 70.5 h: -3.7%

## CN(C)Cc1cc(=O)n2c(n1)CN(Cc1ccco1)CCC2
  cytotoxicity at 70.5 h: -4.34%

## CCOC(=O)C1CN(C(=O)C2CCOCC2)Cc2ncn(CC)c21 (stereo unspecified)
  cytotoxicity at 70.5 h: -3.55%

## CCN1C(=O)CC(c2cnn(C)c2)C12CCN(C(=O)c1ccoc1)CC2 (stereo unspecified)
  cytotoxicity at 70.5 h: -0.434%

## CC(C)CNC(=O)N1CCC2(CCCO2)C1 (stereo unspecified)
  cytotoxicity at 70.5 h: -1.61%

## O=C(NCCNc1ncccn1)C1CCN(C(=O)c2ccoc2)CC1
  cytotoxicity at 70.5 h: -3.53%

## CCCC(=O)N1CCC(C(=O)NCCNc2ncccn2)CC1
  cytotoxicity at 70.5 h: 0.692%

## CC(NC(=O)CCc1cccs1)c1nnc2n1CCCCC2 (stereo unspecified)
  cytotoxicity at 70.5 h: 8.51%

## Cc1nnc2n1CCN(Cc1csc(-c3ccsc3)n1)C2
  cytotoxicity at 70.5 h: -5.37%

## Cc1ncc2c(n1)CN(Cc1nc(-c3cccs3)no1)CC2
  cytotoxicity at 70.5 h: 9.81%

## Cc1nn(C)c(C)c1C1CCCN1Cc1nc(-c2ccccn2)no1 (stereo unspecified)
  cytotoxicity at 70.5 h: -5.05%

## O=C(CN1CC(n2cccn2)C1)NCCc1ccc(F)cc1
  cytotoxicity at 70.5 h: -1.33%

## CN1CCOC(CN(C(=O)CCCn2cccn2)c2nccs2)C1 (stereo unspecified)
  cytotoxicity at 70.5 h: -1.25%

## CN1CCOC(CN(C(=O)CCc2ccco2)c2nccs2)C1 (stereo unspecified)
  cytotoxicity at 70.5 h: 10.3%

## CC(C)c1noc(CN2CCN(C(=O)c3ccncc3F)CC2)n1
  cytotoxicity at 70.5 h: -9.24%

## Cc1ccc(CC(=O)N(CC2CN(C)CCO2)c2nccs2)cn1 (stereo unspecified)
  cytotoxicity at 70.5 h: 11.5%

## Cc1csc(N2CCN(CC(=O)Nc3cccnc3)CC2C)n1 (stereo unspecified)
  cytotoxicity at 70.5 h: 2.59%

## Cc1cc(C)n(CC2CCCN2CCCc2nc3ccccc3o2)n1 (stereo unspecified)
  cytotoxicity at 70.5 h: -1.67%

## CC(c1nc(C2CC2)no1)N1CCN(CCCN2CCCC2=O)CC1 (stereo unspecified)
  cytotoxicity at 70.5 h: 3.52%

## Cc1nnc(CN(C)C2CCN(Cc3nnc(C4CCC4)o3)C2)n1C (stereo unspecified)
  cytotoxicity at 70.5 h: 1.37%

## Cc1nc(CN2CCC(N(C)Cc3nnc(C4CC4)n3C)C2)oc1C (stereo unspecified)
  cytotoxicity at 70.5 h: 10.4%

## Cc1ccc(NC2CCN(C(=O)C(C)n3cncn3)CC2)nn1 (stereo unspecified)
  cytotoxicity at 70.5 h: -0.916%

## COc1cccc(CNCc2ccnc(N3CCOCC3)c2)c1OC
  cytotoxicity at 70.5 h: -4.37%

## O=C(Nc1nc2c(s1)CNCC2)C1CC1
  cytotoxicity at 70.5 h: 26.7%

## Brc1cccnc1OC1CCNCC1
  cytotoxicity at 70.5 h: 23.3%

## CCCC(=O)N(CCCN1CCOCC1)c1nc2c(Cl)cccc2s1
  cytotoxicity at 70.5 h: 1.41%

## CN1C(=O)C2(CCN(Cc3cccnc3)CC2)c2cccc(F)c21
  cytotoxicity at 70.5 h: -3.56%

## CC(C)N1[C@H](Cn2cncn2)C[C@@H]2CNCC[C@@H]21
  cytotoxicity at 70.5 h: 0.707%

## O=C(Cc1ccsc1)N1C[C@@H]2OCCN(c3cnccn3)[C@@H]2C1
  cytotoxicity at 70.5 h: 12.1%

## COCCN1CCCc2sc(C(=O)Nc3ccc(C)nc3)nc21
  cytotoxicity at 70.5 h: -0.226%

## c1coc(CN2CCn3c(COCC4CC4)nnc3C2)c1
  cytotoxicity at 70.5 h: 0.787%

## CCCN1CCC2(C1)c1ccccc1S(=O)(=O)N2C (stereo unspecified)
  cytotoxicity at 70.5 h: -0.72%

## COCCN1CCC2(C1)c1ccccc1S(=O)(=O)N2Cc1ccccc1 (stereo unspecified)
  cytotoxicity at 70.5 h: 1.99%

## CC(C)N1[C@H](Cn2cncn2)C[C@@H]2CN(c3ncccn3)CC[C@@H]21
  cytotoxicity at 70.5 h: -0.391%

## COCCN1CCC2(C1)CN(c1ncc(F)cn1)C2
  cytotoxicity at 70.5 h: 0.704%

## CC(C)N1CCO[C@H]2CN(C(=O)Cc3ccsc3)C[C@H]21
  cytotoxicity at 70.5 h: -2.31%

## CCOC(=O)C1CN(CC2CC2)Cc2ncn(CC)c21 (stereo unspecified)
  cytotoxicity at 70.5 h: -2.34%

## COCCN1CCO[C@@H]2CN(C(=O)NCc3ccccc3)CC[C@@H]2C1
  cytotoxicity at 70.5 h: 2.53%

## Cn1cc(N2C[C@@H]3CN(CC4CCOCC4)C[C@@H]3C2=O)cn1
  cytotoxicity at 70.5 h: 2.05%

## Cc1ccc(N2C[C@@H]3CN(Cc4ccsc4)CCO[C@@H]3C2)nn1
  cytotoxicity at 70.5 h: -11.5%

## Fc1ccc(CN2CCC3(CCN(Cc4nccs4)CC3)C2)cc1
  cytotoxicity at 70.5 h: -0.695%

## c1cc2c(cc1CN1CC[C@H]3CO[C@H](CN4CCCC4)[C@H]3C1)OCO2
  cytotoxicity at 70.5 h: -1.72%

## Fc1ccc(CN2CCOCC3(CCN(Cc4nccs4)C3)C2)cc1 (stereo unspecified)
  cytotoxicity at 70.5 h: -1.05%

## CNC(=O)CN1CCO[C@H]2CN(CC3CCOC3)C[C@H]21 (stereo partly specified)
  cytotoxicity at 70.5 h: -1.2%

## CNC(=O)CN1CCO[C@H]2CN(CC3CCOCC3)C[C@H]21
  cytotoxicity at 70.5 h: -2.33%

## COCCN1CCCn2cnc(CN(C)C(C)C)c2C1
  cytotoxicity at 70.5 h: 4.24%

## CN(C)CCOCc1nnc2n1CCN(Cc1ccsc1)C2
  cytotoxicity at 70.5 h: 2.24%

## Cc1cc(C)c(N(CC(O)CNCc2ccccc2)S(C)(=O)=O)c(C)c1 (stereo unspecified)
  cytotoxicity at 70.5 h: -6.51%
